Reference: ChEMBL document CHEMBL1150679, “Genipatriol, a new cycloartane triterpene from Genipa spruceana” (J Nat Prod, 2003)
The source made the active and inactive calls. The calls are words filed in the database; no cut-off is given here.

System: Nakaseomyces glabratus
Assay: Antimicrobial activity against Candida glabrata assessed as reversal of azole resistance after 24 to 48 hrs
Assay type: functional, organism-based

| SMILES | Activity |
| --- | --- |
| C[C@H]1[C@H](C)CC[C@]2(C(=O)O)CC[C@]3(C)C(=CC[C@@H]4[C@@]5(C)CC[C@H](O)C(C)(C)[C@@H]5CC[C@]43C)[C@H]12 | inactive |
| C/C(=C/CC[C@@H](C)[C@H]1CC[C@@]2(C)[C@@H]3CC[C@H]4C(C)(C)[C@@H](O)[C@H](O)C[C@@]45C[C@@]35CC[C@]12C)CO | inactive |
